In patent publication US8420144B2, “Kokumi-imparting agent, method of using, and compositions containing same” (Ajinomoto Co., Inc., priority 2005, dated 2013):
Numbered stars: 1 amine (or outer) side, 2 acyl side, 3 side chain; on linkers, the order of the positions; unused ones are H or OH. Square brackets hold non-standard residues; d marks the D form. Ends that are not written are not given here. γGlu = O=C(O)[C@H](CCC(=O)[*:2])N[*:1]; Orn = NCCC[C@H](N)C(=O)O; Abu = CC[C@H](N)C(=O)O

Test system: not listed separately
Assay: Quantitative sensory evaluation test of kokumi-imparting activity in water with sodium glutamate, inosine monophosphate and sodium chloride
Type: in vivo, human
Conditions: Table 5; 0.1 g/dl; n=3; control 0, glutathione 3 points
Protocol: Sample solutions that became acidic after dissolution of the samples were adjusted to pH 6.8 to 7.2 with NaOH before use. Sensory evaluation scores were used for evaluation based on the control sample (0 points) and the glutathione sample (3 points), and the test was performed with n=3.
The sample solutions that became acidic after dissolution of the samples were adjusted to pH 6.8 to 7.2 with NaOH before use. Sensory evaluation scores were used for evaluation based on the control sample (0 points) and the glutathione sample (3 points), and the test was performed with n=5.
Sample solutions that became acidic after dissolution of the samples were adjusted to pH 6.8 to 7.2 with NaOH before use. Sensory evaluation scores were used for evaluation based on the control sample (0 points) and the glutathione sample (3 points), and the test was performed with n=12.

| Compound | Intensity of kokumi: Aftertaste [points] | Intensity of kokumi: First and middle taste [points] |
| --- | --- | --- |
| [γGlu]-Val | 1.0 | 3.0 |
| [γGlu]-Ala | 0.2 | 0.5 |
| [γGlu]-Met | 0.4 | 1.5 |

Same assay, conditions: Table 6; 0.1 g/dl; n=5; control 0, glutathione 3 points

| Compound | Intensity of kokumi: Aftertaste [points] | Intensity of kokumi: First and middle taste [points] |
| --- | --- | --- |
| [γGlu]-Cys | 2.0 | 2.0 |
| [γGlu]-Val | 1.0 | 3.0 |

Same assay, conditions: Table 7; 0.01 g/dl; n=12; control 0, glutathione 3 points

| Compound | Intensity of kokumi: Aftertaste [points] | Intensity of kokumi: First and middle taste [points] |
| --- | --- | --- |
| [γGlu]-[Abu]-Gly | 2.0 | 3.0 |

Biological target: T1, human calcium receptor (Homo sapiens, UniProt P41180)
T1 construct: expressed in transfected cells; host or cells: Xenopus laevis oocytes microinjected with cRNA; gene amplified by PCR from human kidney cDNA (Clontech)
T1 sequence (P41180 20-1078): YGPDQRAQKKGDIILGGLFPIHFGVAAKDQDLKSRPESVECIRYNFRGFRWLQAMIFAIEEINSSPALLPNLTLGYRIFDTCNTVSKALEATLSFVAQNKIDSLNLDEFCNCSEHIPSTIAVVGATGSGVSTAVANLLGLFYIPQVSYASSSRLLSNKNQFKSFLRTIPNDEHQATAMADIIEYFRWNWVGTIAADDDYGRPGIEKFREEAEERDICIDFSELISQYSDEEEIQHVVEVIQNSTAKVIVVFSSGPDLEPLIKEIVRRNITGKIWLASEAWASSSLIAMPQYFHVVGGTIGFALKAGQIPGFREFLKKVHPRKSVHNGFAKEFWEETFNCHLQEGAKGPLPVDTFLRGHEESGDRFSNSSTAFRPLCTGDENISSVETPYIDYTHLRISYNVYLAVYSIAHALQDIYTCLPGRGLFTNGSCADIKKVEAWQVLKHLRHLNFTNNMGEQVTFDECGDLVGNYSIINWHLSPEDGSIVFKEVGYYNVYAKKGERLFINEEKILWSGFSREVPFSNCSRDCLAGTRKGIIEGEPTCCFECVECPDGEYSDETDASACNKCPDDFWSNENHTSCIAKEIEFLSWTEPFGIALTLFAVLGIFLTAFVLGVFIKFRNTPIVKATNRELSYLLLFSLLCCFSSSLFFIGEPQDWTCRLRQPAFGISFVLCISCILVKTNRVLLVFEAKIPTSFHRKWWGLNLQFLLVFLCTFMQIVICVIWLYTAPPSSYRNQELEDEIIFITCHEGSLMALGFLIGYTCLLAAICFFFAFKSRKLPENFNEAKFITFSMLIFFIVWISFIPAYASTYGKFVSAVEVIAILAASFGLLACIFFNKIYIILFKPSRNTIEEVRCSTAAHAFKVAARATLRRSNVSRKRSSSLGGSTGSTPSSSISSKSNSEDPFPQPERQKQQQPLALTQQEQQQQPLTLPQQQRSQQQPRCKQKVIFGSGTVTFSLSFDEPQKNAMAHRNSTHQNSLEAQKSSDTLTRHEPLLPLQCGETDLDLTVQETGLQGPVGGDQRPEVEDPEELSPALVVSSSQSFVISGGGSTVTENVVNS
Assay: Calcium receptor activation activity: Ca ion concentration-dependent Cl ionic current in Xenopus laevis oocyte expression system
Type: cell-based
Conditions: 50 μM peptide; oocytes voltage-clamped at −70 mV
Protocol: To evaluate calcium receptor activation activity, a Ca ion concentration-dependent Cl ionic current measuring method using a Xenopus laevis oocyte expression system was used. If each activator is added to Xenopus laevis oocytes expressing the calcium receptor, intracellular Ca ions increase. Then, the Ca ion concentration-dependent Cl channel opens, and the intracellular current value changes as an ionic current. By measuring the change in this intracellular current value, the presence or absence of calcium receptor activation activity can be determined.
Specifically, the abdomen of Xenopus laevis was opened, and an egg batch was taken out and treated with a 1% collagenase solution at 20° C. for 2 hours to obtain individual oocytes. Into the oocytes, 50 nl of 1 μg/μl receptor cRNA or 50 nl of sterilized water per oocyte was introduced by using a micro glass capillary, and the oocytes were cultured at 18° C. for 2 or 3 days. For the culture, a solution obtained by adding 2 mM pyruvic acid, 10 U/ml of penicillin, and 10 μg/ml of streptomycin to the solution in Example 2 was used. After the culture, a test solution was added to the oocytes containing either the cRNA or sterilized water. Electrophysiological measurement was performed by using an amplifier, Geneclamp500 (Axon), and recording software, AxoScope 9.0 (Axon). The oocytes were voltage-clamped at −70 mV by the double electrode voltage clamp method, and the intracellular current was measured via the Ca ion concentration-dependent Cl ion channel. The maximum value of the intracellular current was considered as the response current value.
Calcium receptor activation activity of L-amino acids was evaluated by using the method described in Example 13. That is, oocytes containing either cRNA of the calcium receptor or sterilized water were prepared, and voltage-clamped at −70 mV by the double electrode voltage clamp method. To the voltage-clamped oocytes, alanine (10 mM), arginine (10 mM), asparagine (10 mM), aspartic acid (10 mM), cysteine (10 mM), glutamine (10 mM), glutamic acid (10 mM), glycine (10 mM), histidine (10 mM), isoleucine (10 mM), leucine (10 mM), lysine (10 mM), methionine (10 mM), phenylalanine (10 mM), proline (10 mM), serine (10 mM), threonine (10 mM), tryptophan (10 mM), tyrosine (10 mM), valine (10 mM), ornithine (10 mM), taurine (10 mM), or hydroxyproline (10 mM) was added, and Ca ion concentration-dependent Cl response current was measured. […] As for the aforementioned amino acids, the activation activity was reported in Proc. Natl. Acad. Sci. USA, 2000 Apr. 25, 97(9):4814-9.
Calcium receptor activation activity of D-cysteine was evaluated by using the method described in Example 13. That is, oocytes containing either cRNA of the calcium receptor or sterilized water were prepared, and voltage-clamped at −70 mV by the double electrode voltage clamp method. To the voltage-clamped oocytes, D-cysteine (10 mM), L-cysteine (10 mM), D-tryptophan (10 mM), or L-tryptophan (10 mM) was added, and Ca ion concentration-dependent Cl response current was measured.
Calcium receptor activation activity of peptides was evaluated by using the method described in Example 13. That is, oocytes containing either cRNA of the calcium receptor or sterilized water were prepared, and voltage-clamped at −70 mV by the double electrode voltage clamp method.
Calcium receptor activation activity of peptides was evaluated in the same manner as that of Example 17. Each of the peptides shown in Table 2 was added to voltage-clamped oocytes at 1000 μM, 300 μM, 100 μM, 30 μM, 10 μM, 3 μM, 1 μM, 0.3 μM, and 0.1 μM, and Ca ion concentration-dependent Cl response current was measured.

| Compound | calcium receptor activation activity (Ca ion concentration-dependent Cl response current) |
| --- | --- |
| [γGlu]-Cys | definitive calcium receptor activation activity |
| [γGlu]-Val | definitive calcium receptor activation activity |
| N[C@@H](CCC(=O)N[C@@H](CSN=O)C(=O)NCC(=O)O)C(=O)O [γ-Glu-Cys(SNO)-Gly] | definitive calcium receptor activation activity |
| [γGlu]-Ala | definitive calcium receptor activation activity |
| Glu-Cys | definitive calcium receptor activation activity |
| [γGlu]-Thr | definitive calcium receptor activation activity |

Same assay, conditions: 500 μM peptide; oocytes voltage-clamped at −70 mV

| Compound | calcium receptor activation activity (Ca ion concentration-dependent Cl response current) |
| --- | --- |
| [γGlu]-Gly | definitive calcium receptor activation activity |
| [γGlu]-Met | definitive calcium receptor activation activity |
| Gly-Cys | definitive calcium receptor activation activity |
| γ-Glu-Orn | definitive calcium receptor activation activity |

Same assay, conditions: 1 mM peptide; oocytes voltage-clamped at −70 mV

| Compound | calcium receptor activation activity (Ca ion concentration-dependent Cl response current) |
| --- | --- |
| Cys-Met | definitive calcium receptor activation activity |
| Cys-Gly | definitive calcium receptor activation activity |
| Asp-Gly | definitive calcium receptor activation activity |
| Leu-Asp | definitive calcium receptor activation activity |

Same assay, conditions: 10 mM amino acid; oocytes voltage-clamped at −70 mV

| Compound | calcium receptor activation activity (Ca ion concentration-dependent Cl response current) |
| --- | --- |
| N[C@@H](CS)C(=O)O [cysteine, reference compound] | definite calcium receptor activation activity |
| N[C@@H](Cc1c[nH]c2ccccc12)C(=O)O [tryptophan, reference compound] | definite calcium receptor activation activity |
| N[C@H](CS)C(=O)O [D-cysteine] | definitive calcium receptor activation activity |
| N[C@@H](Cc1c[nH]cn1)C(=O)O [histidine, reference compound] | definite calcium receptor activation activity |
| N[C@@H](Cc1ccccc1)C(=O)O [phenylalanine, reference compound] | definite calcium receptor activation activity |
| N[C@@H](Cc1ccc(O)cc1)C(=O)O [tyrosine, reference compound] | definite calcium receptor activation activity |

Same assay, conditions: added at 1000, 300, 100, 30, 10, 3, 1, 0.3 and 0.1 μM

| Compound | Activity (lowest concentration for which current was detected) [µM] |
| --- | --- |
| [γGlu]-Ser-Gly | 30 |
| [γGlu]-Val-Thr | 1000 |
| γ-Glu-Cys(S-Me)-Gly | 3 |
| [γGlu]-Val-Pro | 30 |
| [γGlu]-Val-Met | 1000 |
| [γGlu]-Val-His | 100 |
| [γGlu]-Val-Cys | 10 |
| [γGlu]-Val-Phe | 30 |
| [γGlu]-Val-Glu | 1000 |
| γ-Glu-Val-Asp | 1000 |
| [γGlu]-Val-Ser | 30 |
| [γGlu]-Val-Val | 1000 |
| [γGlu]-Val-Asn | 30 |
| γ-Glu-Cys(S-allyl)-Gly | 100 |
| [γGlu]-Val-Lys | 1000 |
| γ-Glu-t-Leu | 100 |
| [γGlu]-Val-[Orn] | 100 |
| [γGlu]-Val-Arg | 1000 |
| γ-Glu-Tau | 300 |
| [γGlu]-Gly-Gly | 30 |
| [γGlu]-[γGlu]-Val | 1000 |
| [γGlu]-Val-Gln | 10 |
| [γGlu]-[Abu]-Gly | 3 |
